Test [1] relates to Human Epidermal Keratinocyte cells (HEK). The experiment in a line: In vitro proliferation assay on keratinocyte cells (PrestoBlue). The class given is cell-based. The conditions noted are these: test concentration 10 (%, v/v), 24 h, negative control = 100.00. On the procedure:
Human Epidermal Keratinocyte cells (HEK) are grown to a density of 4500 cells/cm^2 in keratinocyte growth medium at 37° C. in 5% CO2 humidified air during 7 days. After this time, they are split and then seeded for treatment.
HEK are seeded at a density of 70000 cells/mL of culture medium in 96-well Cell Carrier black plates (PerkinElmer) in culture medium. After 24 hours incubation at 37° C. in 5% CO2 humidified air, medium is removed and fresh culture medium with dilutions of the test products. Cells treated with medium alone are used as negative control. Epidermal Growth Factor (EGF) is used as a positive control. After 24 hours incubation, live and dead cells are quantified with PrestoBlue® Cell Viability Reagent.
HEK quantification is quantified by fluorescence by using cell permeable resazurin-based solution PrestoBlue® from Thermo Fisher Scientific.
Stock solution of Example 1 and 2 are assayed in 3 independent experiments including 4 replicates in each experiment.

Test [2] has as its system Human Umbilical Vein Endothelial cells (HUVEC). Briefly: In vitro new blood vessel (tube-like structure) formation. The format is cell-based. The conditions noted are these: 5 ng/ml, 4 h, respect basal condition. The source says: Hair follicles get nourishment from blood flow in the skin having hair. Optimal irrigation of hair follicle increases its nourishment and stimulates the generation of new hair and improves hair growth and strength. Compounds able to generate new blood vessels in the hair follicle are good candidates for the cosmetic treatment of eyelash growth and strength. In vitro assessment of new blood vessels formation involves measurement of the ability of endothelial cells to form three-dimensional tube-like structures. Human Umbilical Vein Endothelial cells (HUVEC) mediate specific connections with extracellular matrix components generating differential forces which induces morphological changes and migration of HUVEC, leading to the formation of tube-like structures. The aim of this study is to evaluate the efficacy of the compound of the invention to generate new blood vessel tubes by means of measuring the ability of endothelial cells to form three-dimensional tube-like structures.
A 96 well plate is pre-coated with cold Extracellular Matrix Solution (Angiogenesis Assay kit, PromoKine) and incubated for 1 hour at 37° C. After the incubation, HUVEC cells are seeded in pre-coated wells at a density of 15,000 cells/well. Immediately, cells are treated with the stock solution of Example 2 dissolved in medium achieving a final well concentration of 0.5% (v/v). Vascular endothelial growth factor (VEGF) is used as positive control at a final well concentration of 5 ng/ml and cells treated with medium alone are used as a basal control. Cells are treated for 4 hours at 37° C. in 5% CO2 humidified air and then are stained with Staining Dye (Angiogenesis Assay kit, PromoKine) according to the manufacturer's protocol. Briefly, cells are washed and then Staining Dye solution was added. After a 30 minutes incubation at 37° C. in 5% CO2 humidified air, fluorescence images are captured using Operetta® confocal microscope (PerkinElmer, Inc) and new tubes formation is evaluated by ImageJ software.
New blood vessel tube formation is evaluated by the measurement of different parameters in each image acquired. […] Afterwards, the software quantifies more complex structures: • Segment length: number of pixels of each segment detected. • Master segment number: number of segments delimited by junctions without branch connection. • Master junction number: number of junctions which link at least three master segments. • Number of meshes: number of elements delimited by segments or master segments.
To consider an increase in new blood vessel tube formation, more than one of the parameters measured needs to be increased.
Results herein are the different measured parameters expressed as percentage normalized by basal condition.

Consider “Positive control (EGF): Epidermal Growth Factor used as a positive control”, for which, in test [1], the “Cell growth MEAN normalized with respect to the negative control” value worked out at 94.41.

Consider VEGF, for which, in test [2], the “% of number of master junctions (Mean ± SEM)” value was 183.1 ± 31.1%, the “% of number of master segments (Mean ± SEM)” value is 196.5 ± 36.5%, the “% of number of meshes (Mean ± SEM)” value is on record as 288.6 ± 75.9% and the “% of total segment length (Mean ± SEM)” value turned out to be 160.1 ± 21.9%.
